Here are results for 2 compounds from patent US4308251A, “Controlled release formulations of orally-active medicaments” (Boots Pharmaceuticals, Inc., priority 1980, dated 1981).

Series [1] relates to patients with pain (chronic bursitis, knee injury). Format: in vivo, human. The source says: patient two is a housewife who suffered a painful right shoulder for two years. Consultants believed this condition was a result of chronic bursitis.
patient three is a person who is employed full time in an accounting department of a small company. […] While skating they fell, causing a partial tear of the medial collateral ligament and medial meniscus of the left knee. Support wrappings and acetaminophen were tried. […] This dosage regimen was maintained throughout the patient's convalescence.
patient one sustained a traumatic injury to the medial portion of their right knee during a basketball game.

A further series relates to patients taking aspirin. As to conditions: background statement; cited from earlier work.
[2] abbreviates: Patient No. 1, aspirin as regularly prescribed.

Consider `CC(=O)Nc1ccc(O)cc1` [acetaminophen], for which the pain relief result in series [1] (Patient No. 2, regular acetaminophen) is “only partial and temporary”.

On to `CC(=O)Oc1ccccc1C(=O)O` [aspirin, acetylsalicylic acid], for which the “patients considered treatment failures because of side effects” value in the series with patients taking aspirin was “Approximately sixty”. Besides, in series [1] (setting [2]), the “effect on shoulder pain” value was “ineffective” and the side effects result was “epigastric discomfort”.
